Molecules are shown by their SMILES. Read-outs that look alike come from different tables or passages of the source. Some results are limits rather than exact numbers.

This is an account of results in patent US11464765B2, “Use of an N-substituted pyridyl benzisoselazolone compound” (SHANGHAITECH UNIVERSITY, priority 2020, dated 2022).

For series [1], the system named is novel coronavirus (SARS-CoV-2). The experiment in a line: in vitro cell-virus assay. Type of series: cell-based.
For series [2] the following is noted: rats; cited from earlier work.
For series [3] the following is noted: mice; cited from earlier work.
The conditions of series [4]: human, in vivo; cited from earlier work.

Turning to `O=c1c2ccccc2[se]n1-c1ccccc1` [ebselen, Ebselen], the “replication ability of SARS-CoV-2 in cells” value in series [1] (FIG. 4) is reported as “significantly inhibits the replication ability of SARS-CoV-2 in cells”. In series [1] (infected cells, FIG. 3), the “cytopathy caused by novel coronavirus infection” value is “can prevent cytopathy caused by novel coronavirus infection”. Moreover, the oral lethal dose in series [2] was above 4600 mg/kg; in series [3], above 2150 mg/kg. Besides, the “clinical safety and tolerability” value in series [4] was “safe and well tolerated”.
